Target: T1, androgen receptor (AR) (Homo sapiens, UniProt P10275, T878A)
T1 construct: LNCaP cells expressing ARR2PB-FireflyLuc and CMV-RenillaLuc; endogenous in cells; host or cells: LNCaP cells carrying ARR2PB-FireflyLuc and CMV-RenillaLuc reporters
T1 sequence (P10275 1-920 T878A): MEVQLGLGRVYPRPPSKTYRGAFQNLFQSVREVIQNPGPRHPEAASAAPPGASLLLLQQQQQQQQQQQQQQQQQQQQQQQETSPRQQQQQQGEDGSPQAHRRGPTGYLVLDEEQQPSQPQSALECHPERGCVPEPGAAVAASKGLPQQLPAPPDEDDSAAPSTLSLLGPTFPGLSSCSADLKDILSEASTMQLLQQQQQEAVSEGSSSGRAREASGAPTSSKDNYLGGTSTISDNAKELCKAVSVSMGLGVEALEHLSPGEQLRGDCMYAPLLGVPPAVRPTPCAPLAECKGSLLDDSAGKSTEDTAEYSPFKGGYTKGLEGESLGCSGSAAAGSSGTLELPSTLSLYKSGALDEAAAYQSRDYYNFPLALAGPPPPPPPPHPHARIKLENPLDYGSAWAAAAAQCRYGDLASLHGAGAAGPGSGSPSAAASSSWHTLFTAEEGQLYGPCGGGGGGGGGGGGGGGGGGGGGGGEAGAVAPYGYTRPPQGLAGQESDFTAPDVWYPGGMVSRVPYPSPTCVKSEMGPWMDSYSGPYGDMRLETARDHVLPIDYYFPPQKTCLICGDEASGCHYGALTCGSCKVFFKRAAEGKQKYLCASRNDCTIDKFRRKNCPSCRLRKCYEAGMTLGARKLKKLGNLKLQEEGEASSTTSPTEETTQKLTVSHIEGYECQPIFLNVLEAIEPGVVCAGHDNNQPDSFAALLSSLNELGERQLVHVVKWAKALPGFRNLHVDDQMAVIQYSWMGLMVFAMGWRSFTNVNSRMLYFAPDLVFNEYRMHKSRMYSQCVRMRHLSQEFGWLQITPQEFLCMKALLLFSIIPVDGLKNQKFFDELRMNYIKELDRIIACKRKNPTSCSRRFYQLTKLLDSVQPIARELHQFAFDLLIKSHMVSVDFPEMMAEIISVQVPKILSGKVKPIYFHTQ
Test: AR reporter assay in LNCaP cells expressing ARR2PB-FireflyLuc and CMV-RenillaLuc, antagonist mode (% remaining activity, IC50)
Assay type: cell-based
Settings: 48 h at 37° C., class symbols A-D, read-out: IC50
Method in brief: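 LNCaP cells carrying ARR2PB-firefly and CMV-Renilla luciferase reporters were treated 48 h at 37 °C with compound plus 0.5 nM DHT. Signals were normalised between 0.5 nM DHT alone and 10 uM enzalutamide + DHT to give % remaining activity, and IC50 was obtained by non-linear regression.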

| SMILES | IC50 [µM] |
| --- | --- |
| Cc1nc(-c2c[nH]c3c(C#N)cccc23)cnc1NC1CCNCC1 [Compound 231] | > 10 |
| Cc1nc(-c2c[nH]c3c(C#N)cccc23)cnc1NC1CCCNC1 (stereo not shown) [Compound 232] | > 10 |
| Cc1nc(-c2c[nH]c3c(C#N)cccc23)cnc1OC1CCNCC1 [Compound 233] | > 10 |
| Cc1nc(-c2c[nH]c3c(C#N)cccc23)cnc1OC1CCCNC1 (stereo not shown) [Compound 234] | > 10 |
| CC1(C)c2nc(-c3c[nH]c4c(C#N)cccc34)ccc2C(=O)N1CCCO [Compound 235] | > 10 |
| CC1(C)c2nc(-c3c[nH]c4c(C#N)cccc34)ccc2C(=O)N1CCCCO [Compound 236] | > 10 |
| N#Cc1cccc2c(-c3ccc(OC4CCNC4)c(Cl)n3)c[nH]c12 (stereo not shown) [Compound 237] | 0.1 to 1 |
| Cc1nc(-c2c[nH]c3c(Cl)cccc23)ccc1OC1CCNC1 (stereo not shown) [Compound 238] | 1 to 10 |
| Cc1nc(-c2c[nH]c3c(C#N)cccc23)cnc1OC1CNC1 [Compound 239] | 1 to 10 |
| CC(=O)N1CC(Oc2ncc(-c3c[nH]c4c(C#N)cccc34)nc2C)C1 [Compound 240] | 0.1 to 1 |
| N#Cc1cccc2c(-c3ccc(OC4CCNC4)c(Cl)c3)c[nH]c12 (stereo not shown) [Compound 241] | 1 to 10 |
| N#Cc1cccc2c(-c3cnc(OC4CCNC4)c(OC(F)F)n3)c[nH]c12 (stereo not shown) [Compound 244] | > 10 |
| N#Cc1cccc2c(-c3cnc(OC4CCNC4)c(C(F)(F)F)n3)c[nH]c12 (stereo not shown) [Compound 245] | 1 to 10 |
| Cc1nc(-c2c[nH]c3c(C#N)cccc23)cnc1OC[C@H]1[C@@H]2CNC[C@@H]21 [Compound 246] | 0.1 to 1 |
| Cc1nc(-c2c[nH]c3c(C#N)cccc23)cnc1OC[C@@H]1[C@@H]2CNC[C@@H]21 [Compound 247] | 1 to 10 |
| Cc1nc(-c2coc3c(Cl)cccc23)cnc1N [Compound 248] | 1 to 10 |
| CCc1nc(-c2c[nH]c3c(C#N)cccc23)cnc1OC1CCNC1 (stereo not shown) [Compound 249] | > 10 |
| COc1nc(-c2c[nH]c3c(C#N)cccc23)cnc1NC1CCNC1 (stereo not shown) [Compound 250] | 0.1 to 1 |
| CCOc1nc(-c2c[nH]c3c(C#N)cccc23)cnc1NC1CCNC1 (stereo not shown) [Compound 251] | 1 to 10 |
| N#Cc1cccc2c(-c3ccc(OC4CCNC4)c(C(F)(F)F)n3)c[nH]c12 (stereo not shown) [Compound 252] | 1 to 10 |
| CCc1nc(-c2c[nH]c3c(Cl)cccc23)cnc1OC1CCNC1 (stereo not shown) [Compound 253] | > 10 |
| Fc1cc(-c2c[nH]c3c(Cl)cccc23)ccc1OC1CCNC1 (stereo not shown) [Compound 254] | 1 to 10 |
| Cc1nc(-c2n[nH]c3cc(F)c(F)cc23)ccc1OC1CCNC1 (stereo not shown) [Compound 255] | 1 to 10 |
| Cc1nc(-c2n[nH]c3c(Cl)cccc23)ccc1OC1CCNC1 (stereo not shown) [Compound 256] | 1 to 10 |
| CC(=O)N1CCC(Oc2ncc(-c3c[nH]c4c(Cl)cccc34)nc2C)C1 (stereo not shown) [Compound 257] | 0.1 to 1 |

| SMILES | IC50 [µM] |
| --- | --- |
| CC(=O)N1CCC(Oc2ncc(-c3c[nH]c4c(C(F)(F)F)cccc34)nc2C)C1 (stereo not shown) [Compound 258] | 0.1 to 1 |
| CC(=O)N1CCC(Oc2ncc(-c3c[nH]c4c(C#N)cccc34)nc2Cl)C1 (stereo not shown) [Compound 259] | 0.1 to 1 |
| CC(=O)N1CCC(Oc2ccc(-c3c[nH]c4c(C#N)cccc34)nc2C)C1 (stereo not shown) [Compound 260] | 0.1 to 1 |
| CC(=O)N1CCC(Oc2ccc(-c3c[nH]c4c(C#N)cccc34)nc2Cl)C1 (stereo not shown) [Compound 261] | 0.1 to 1 |
| CC(=O)N1CCC(Oc2ccc(-c3c[nH]c4c(C#N)cccc34)nc2C(F)(F)F)C1 (stereo not shown) [Compound 262] | 0.1 to 1 |
| CC(=O)N(C)CCOc1ncc(-c2c[nH]c3c(Cl)cccc23)nc1C [Compound 263] | 0.1 to 1 |
| CC1(C)NC(=O)c2ccc(-c3c[nH]c4c(C#N)cccc34)cc21 [Compound 264] | 0.1 to 1 |
| COc1nc(-c2c[nH]c3c(C#N)cccc23)cnc1NC1CCN(C(C)=O)C1 (stereo not shown) [Compound 265] | < 0.1 |
| CC1(CO)NC(=O)c2ccc(-c3c[nH]c4c(C#N)cccc34)nc21 (stereo not shown) [Compound 266] | > 10 |
| CCc1nc(-c2c[nH]c3c(C#N)cccc23)cnc1OCCN [Compound 267] | > 10 |
| CCc1nc(-c2c[nH]c3c(C#N)cccc23)cnc1OC1CCN(C(C)=O)C1 (stereo not shown) [Compound 268] | 0.1 to 1 |
| CC(=O)N1CCC(Oc2ncc(-c3c[nH]c4c(C#N)cccc34)nc2C(F)(F)F)C1 (stereo not shown) [Compound 269] | 0.1 to 1 |
| CC1(C)NC(=O)c2cnc(-c3c[nH]c4c(C#N)cccc34)cc21 [Compound 270] | > 10 |
| CC1(C)NC(=O)c2ncc(-c3c[nH]c4c(C#N)cccc34)cc21 [Compound 271] | > 10 |
| CC(=O)N1C[C@@H](F)[C@H](Oc2ncc(-c3c[nH]c4c(C#N)cccc34)nc2C)C1 [Compound 272] | 0.1 to 1 |
| Cc1nc(-c2c[nH]c3c(Cl)cccc23)cnc1O[C@@H]1CNC[C@H]1F [Compound 273] | 0.1 to 1 |
| Cc1nc(-c2c[nH]c3c(C#N)cccc23)cnc1OC1CC(N)C1 (stereo not shown) [Compound 274] | 0.1 to 1 |
| Cc1nc(-c2c[nH]c3c(C#N)cccc23)cnc1OC1CCC(N)C1 (stereo not shown) [Compound 275] | > 10 |
| CC(=O)N1CCC(Oc2ncc(-c3n[nH]c4c(Cl)cccc34)nc2C)C1 (stereo not shown) [Compound 276] | 0.1 to 1 |
| Cc1nc(-c2n[nH]c3c(Cl)cccc23)cnc1OC1CCNC1 (stereo not shown) [Compound 277] | 0.1 to 1 |
| COc1nc(-c2c[nH]c3c(C#N)cccc23)cnc1OC1CCN(C(C)=O)C1 (stereo not shown) [Compound 278] | 1 to 10 |
| Cc1nc(-c2c[nH]c3c(C#N)cccc23)cnc1NCC(C)(C)O [Compound 279] | 0.1 to 1 |
| COc1nc(-c2c[nH]c3c(C#N)cccc23)cnc1NCC(C)(C)O [Compound 280] | 0.1 to 1 |
| Cc1nc(-c2c[nH]c3c(C#N)cccc23)cnc1SC1CCNC1 (stereo not shown) [Compound 281] | 1 to 10 |
| N#Cc1cccc2c(-c3cnc(OC4CCNC4)c(C4CC4)n3)c[nH]c12 (stereo not shown) [Compound 282] | 1 to 10 |

| SMILES | IC50 [µM] |
| --- | --- |
| Cc1nc(-c2c[nH]c3c(C#N)cccc23)cnc1OC1CCNC1(C)C (stereo not shown) [Compound 283] | > 10 |
| Cc1nc(-c2c[nH]c3c(C#N)cccc23)cnc1OC1CNC(C)(C)C1 (stereo not shown) [Compound 284] | > 10 |
| Cc1nc(-c2c[nH]c3c(C#N)cccc23)cnc1O[C@H]1CCN[C@@H]1C [Compound 285] | 1 to 10 |
| Cc1nc(-c2c[nH]c3c(C#N)cccc23)cnc1OCC(C)(C)N [Compound 286] | 1 to 10 |
| Cc1nc(-c2c[nH]c3c(C#N)cccc23)cnc1OC(C)CN (stereo not shown) [Compound 287] | 0.1 to 1 |
| COc1nc(-c2c[nH]c3c(C#N)cccc23)cnc1N[C@H]1CCN(C(C)=O)C1 [Compound 288] | < 0.1 |
| COc1nc(-c2c[nH]c3c(C#N)cccc23)cnc1N[C@@H]1CCN(C(C)=O)C1 [Compound 289] | < 0.1 |
| CC(=O)N1CCC(Oc2cnc(-c3c[nH]c4c(C#N)cccc34)cn2)C1 (stereo not shown) [Compound 290] | 1 to 10 |
| CC(=O)N1CCC(Oc2ncc(-c3c[nH]c4c(F)cccc34)nc2C)C1 (stereo not shown) [Compound 291] | 0.1 to 1 |
| CC(=O)N1CCC(Oc2ncc(-c3c[nH]c4ncccc34)nc2C)C1 (stereo not shown) [Compound 292] | > 10 |
| COc1nc(-c2c[nH]c3ncccc23)cnc1NC1CCN(C(C)=O)C1 (stereo not shown) [Compound 293] | > 10 |
| COc1nc(-c2c[nH]c3c(C#N)cccc23)cnc1N(C)C1CCN(C(C)=O)C1 (stereo not shown) [Compound 294] | 0.1 to 1 |
| CC1(C)NC(=O)c2ccc(-c3c[nH]c4c(F)cccc34)nc21 [Compound 295] | 0.1 to 1 |
| Cc1nc(-c2c[nH]c3c(Cl)cccc23)cnc1OC1CCNC1 (stereo not shown) [Compound 296] | < 0.1 |
| Cc1nc(-c2c[nH]c3c(C#N)cccc23)cnc1O[C@@H]1CNC[C@@H]1F [Compound 297] | 0.1 to 1 |
| Cc1nc(-c2c[nH]c3c(=O)n(C)ccc23)ccc1OC1CCNC1 (stereo not shown) [Compound 300] | > 10 |
| Cc1nc(-c2c[nH]c3c(C#N)cccc23)cnc1OCC(C)(C)O [Compound 301] | < 0.1 |
| Cc1nc(-c2c[nH]c3c(C#N)cccc23)cnc1OC(C)CN (stereo not shown) [Compound 303] | 0.1 to 1 |
| CCc1nc(-c2c[nH]c3c(C#N)cccc23)cnc1OC1CCNC1 (stereo not shown) [Compound 305] | > 10 |
| COc1nc(-c2c[nH]c3c(C#N)cccc23)cnc1OC1CCN(C(C)=O)C1 (stereo not shown) [Compound 306] | 1 to 10 |
| CSc1nc(-c2c[nH]c3c(C#N)cccc23)cnc1OC1CCNC1 (stereo not shown) [Compound 307] | > 10 |
| Cc1nc(-c2c[nH]c3c(C#N)cccc23)cnc1OC1(C)CCNC1 (stereo not shown) [Compound 308] | 1 to 10 |
| Cc1nc(-c2coc3cc(F)ccc23)cnc1N [Compound 309] | 0.1 to 1 |

Reference: patent US12448368B2, “Indole compounds as androgen receptor modulators” (NIDO BIOSCIENCES, INC., priority 2020, dated 2025)
